Measured values reported in publication PMC4153677, “Probing the Activity Modification Space of the Cysteine Peptidase Cathepsin K with Novel Allosteric Modifiers” (PLoS ONE, 2014).
Where two headings read alike, the source gives them in different places.

Key:
[1] = target: T1, Recombinant human cathepsin K (Homo sapiens, UniProt P43235); test: Azocasein degradation assays; format: biochemical; settings: for azocasein: fraction of residual enzyme activity: value of 1 equals the activity of unmodified enzyme, activity modification matrix
T1 construct: made in house
T1 sequence (P43235 115-329): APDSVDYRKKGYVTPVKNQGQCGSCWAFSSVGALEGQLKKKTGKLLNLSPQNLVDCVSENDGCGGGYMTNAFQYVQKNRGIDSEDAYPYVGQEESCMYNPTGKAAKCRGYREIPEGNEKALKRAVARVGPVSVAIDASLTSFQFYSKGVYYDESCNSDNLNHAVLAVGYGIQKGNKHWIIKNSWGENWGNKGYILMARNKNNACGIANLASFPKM
Source text: Figure 4 Effect of modifiers on the degradation of macromolecular substrates. (A) Effect of increasing concentrations of compounds 1 and 2 on the degradation of calf skin collagen. Molecular mass standards are given in kDa and positions of α, β and γ chains of intact collagen are marked by arrows. (B) Effect of modifiers on azocasein degradation. (C) Effect of glycosaminoglycans and clusterin on azocasein degradation. Two different concentrations of each glycosaminoglycan were used in the experiments (10 µg/ml and 200 µg/ml). Error bars in panels B and C represent the SEM of three experiments. All experiments were performed in 100 mM sodium acetate buffer pH 5.50 containing 1 mM EDTA and 5 mM DTT, as described in detail in the Materials and Methods section. Abbreviations: CPD – compound, CS – chondroitin sulfate, DS – dermatan sulfate, HP – heparin.
Azocasein (Sigma-Aldrich, USA) was dissolved in 100 mM sodium acetate buffer pH 5.50 containing 1 mM EDTA and 5 mM DTT at a concentration of 3 mg/ml. Samples were incubated with 0.1 µM cathepsin K for 30 min at 37°C in the presence of each compound. […] Reactions were stopped by addition of trichloroacetic acid (final concentration 5% v/v), centrifuged, clear supernatants mixed with 0.5 M NaOH and the concentrations of solubilized peptides determined by measuring the absorbance at 440 nm. All experiments were performed in triplicates and appropriate blanks were run to take into account the absorption of azocasein and compounds alone. IC 50 values were determined as described previously.

[2] = target: T1, Recombinant human cathepsin K; settings: cited from earlier work; for Z-FRAMC: geometric mean of residual activities (vA): at 0.1×Km and 10×Km substrate, modifier 10×KA, previously known modifiers, data from previous work
[3] = target: T1, Recombinant human cathepsin K; set-up: key: qualitative values of 1 and 0 were used to signify inhibition and lack thereof, respectively; qualitative values of 1 and 0 were used to signify inhibition and lack thereof, respectively; a value of -1 was used to describe the concentration-dependent roles of glycosaminoglycans; settings: activity modification matrix; previously known modifiers, data from previous work; cited from earlier work
[4] = target: T1, Recombinant human cathepsin K; settings: cited from earlier work; for stability: ln(sf), sf = ratio of half-lives in the presence and absence of modifier: 37 °C and pH 7.4, data from previous work

Row | azocasein: fraction of residual enzyme activity [1] | Effect on azocasein degradation ([1]; glycosaminoglycans at 10 µg/ml and 200 µg/ml, clusterin) | Effect on azocasein degradation ([1]; lowest concentration, 10 µg/ml) | Substance | Z-FRAMC: geometric mean of residual activities (vA) [2] | collagen: qualitative value [3] | stability: ln(sf), sf = ratio of half-lives in the presence and absence of modifier [4] | Effect on stability of cathepsin K at physiological plasma pH 7.4 [4] | Effect on the hydrolysis of Z-FR↓AMC [2] | Effect on the hydrolysis of Z-FR↓AMC ([2]; listed as CLU)
1 | 0.31 | – | – | heparin | 1.55 | -1 | 1.69 | increase the stability | – | –
2 | 0.32 | – | – | dermatan sulfate [reference compound] | 3.18 | -1 | -0.15 | – | – | –
3 | 0.90 | – | ineffective | chondroitin sulfate [reference compound] | 2.40 | -1 | -0.24 | – | – | –

Row | Substance | azocasein: fraction of residual enzyme activity [1] | Effect on azocasein degradation ([1]; glycosaminoglycans at 10 µg/ml and 200 µg/ml, clusterin) | Effect on azocasein degradation ([1]; lowest concentration, 10 µg/ml) | Z-FRAMC: geometric mean of residual activities (vA) [2] | collagen: qualitative value [3] | stability: ln(sf), sf = ratio of half-lives in the presence and absence of modifier [4] | Effect on stability of cathepsin K at physiological plasma pH 7.4 [4] | Effect on the hydrolysis of Z-FR↓AMC [2] | Effect on the hydrolysis of Z-FR↓AMC ([2]; listed as CLU)
4 | clusterin: extracellular chaperone, stabilizer and liberator of cathepsin K | 0.95 | marginal inhibitory effect | – | 1.00 | 0 | 0.79 | increase the stability | no effect on enzymatic activity | no modification
